Experimental data published in the NIST ThermoML archive (doi:10.1021/je900785z).
± gives the expanded uncertainty stated by the source.

Details: for mass density: 298.15 K, 101.33 kPa, Liquid

SMILES | Normal melting temperature (Crystal, visual observation) | mass density
O=C1CCCCCN1 [1-aza-2-cycloheptanone] | 69.06 ± 0.39 °C | –
CC(C)CC(C)(C)C [2,2,4-trimethylpentane] | – | 687.757 ± 0.84 kg/m3
CCCCCCCCCC [decane] | – | 726.357 ± 1.2 kg/m3
CCCCCCCCC [nonane] | – | 714.064 ± 1.3 kg/m3

Second part, the molecule after the results:

Normal melting temperature (Crystal, visual observation) | mass density | SMILES
– | 679.627 ± 0.85 kg/m3 | CCCCCCC [heptane]
– | 698.636 ± 1.3 kg/m3 | CCCCCCCC [octane]
